From patent US7138361B2, “Herbicidal heterocycles” (E. I. du Pont de Nemours and Company, priority 2000, dated 2006)

Experiments:
Type in all cases: in vivo
[1] = system: Surinam grass (Brachiaria decumbens); assay: Test B preemergence
Summary of the method: (§1)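 Greenhouse test: chemicals are formulated in a surfactant-containing non-phytotoxic solvent and applied either preemergence to planted seeds or postemergence to plants 2 to 18 cm tall. Response is rated visually versus controls after 13 to 15 days, 0 meaning no effect and 100 complete control.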

[2] = system: barnyardgrass (Echinochloa crus-galli); assay: Test B preemergence
Summary of the method: as §1

[3] = system: cocklebur (Xanthium strumarium); assay: Test B preemergence
Summary of the method: as §1

corn (Zea mays) = assay: Test B preemergence
Summary of the method: as §1

[4] = system: crabgrass (Digitaria sanguinalis); assay: Test B preemergence
Summary of the method: as §1

[5] = system: giant foxtail (Setaria faberii); assay: Test B preemergence
Summary of the method: as §1

[6] = system: lambsquarters (Chenopodium album); assay: Test B preemergence
Summary of the method: as §1

[7] = system: morning glory (Ipomoea hederacea); assay: Test B preemergence
Summary of the method: as §1

[8] = system: pigweed (Amaranthus retroflexus); assay: Test B preemergence
Summary of the method: as §1

rice (Oryza saliva) = assay: Test B preemergence
Summary of the method: as §1

[9] = system: velvetleaf (Abutilon theophrasti); assay: Test B preemergence
Summary of the method: as §1

Sunflower [10] = assay: Test C preemergence
[11] = system: Surinam grass (Brachiaria decumbens); assay: Test C preemergence; settings: for Plant response rating (0 to 100), Surinam grass: visual evaluation after 12 to 14 days
Summary of the method: (§2)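 Response scores (0 no effect to 100 complete control) came from visual comparison with untreated controls 12 to 14 days after treatment. Preemergence application was made to seeded soil; postemergence, to plants at the 1- to 4-leaf stage.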

[12] = system: bermudagrass (Cynodon dactylon); assay: Test C preemergence; settings: for Plant response rating (0 to 100 where 0 is no effect and 100 is complete control), Bermudagrass: visual evaluation after 12 to 14 days
Summary of the method: as §2

[13] = system: cocklebur (Xanthium strumarium); assay: Test C preemergence; settings: for Plant response rating (0 to 100), Cocklebur: visual evaluation after 12 to 14 days
Summary of the method: as §2

[14] = system: common ragweed (Ambrosia elatior); assay: Test C preemergence; settings: for Plant response rating (0 to 100), Ragweed, Common: visual evaluation after 12 to 14 days
Summary of the method: as §2

[15] = system: crabgrass (Digitaria sanguinalis); assay: Test C preemergence; settings: for Plant response rating (0 to 100), Crabgrass: visual evaluation after 12 to 14 days
Summary of the method: as §2

[16] = system: giant foxtail (Setaria faberii); assay: Test C preemergence; settings: for Plant response rating (0 to 100), Foxtail, Giant: visual evaluation after 12 to 14 days
Summary of the method: as §2

[17] = system: goosegrass (Eleusine indica); assay: Test C preemergence; settings: for Plant response rating (0 to 100), Goosegrass: visual evaluation after 12 to 14 days
Summary of the method: as §2

[18] = system: morningglory (Ipomoea hederacea); assay: Test C preemergence; settings: for Plant response rating (0 to 100), Morningglory: visual evaluation after 12 to 14 days
Summary of the method: as §2

[19] = system: velvetleaf (Abutilon theophrasti); assay: Test C preemergence; settings: for Plant response rating (0 to 100), Velvetleaf: visual evaluation after 12 to 14 days
Summary of the method: as §2

Sunflower [20] = assay: Test C preemergence; settings: visual evaluation after 12 to 14 days
[21] = Preemergence, Rate 500 g/ha, scale 0 to 100, 0 no effect, 100 complete control
[22] = preemergence, Rate 125 g/ha, scale of 0 to 100 where 0 is no effect and 100 is complete control, 13 to 15 days
[23] = Rate 125 g/ha, scale 0 to 100, 0 no effect, 100 complete control
[24] = preemergence, Rate 62 g/ha, scale 0 to 100
[25] = preemergence, Rate 250 g/ha, scale 0 to 100, 0 no effect, 100 complete control
[26] = preemergence, Rate 125 g/ha, scale 0 to 100, 0 no effect, 100 complete control
[27] = Rate 62 g/ha, scale 0 to 100, 0 no effect, 100 complete control
[28] = Preemergence, Rate 500 g/ha, scale 0 to 100

Compound: CC(C)(C)c1ccn(C2CCN(c3cccc(I)c3)C2=O)n1 (stereo not shown) [Compound 88]
- Plant response rating, Surinam grass [1, 21]: 100
- Plant response rating, Surinam grass [1, 22]: 70
- Plant response rating, Barnyardgrass [2, 21]: 100
- Plant response rating, Barnyardgrass [2, 22]: 100
- Plant response rating, Cocklebur [3, 21]: 0
- Plant response rating, Cocklebur [3, 22]: 0
- Plant response rating, Corn (corn (Zea mays); [21]): 20
- Plant response rating, Corn (corn (Zea mays); [22]): 20
- Plant response rating, Crabgrass [4, 21]: 100
- Plant response rating, Crabgrass [4, 22]: 100
- Plant response rating, Foxtail, Giant [5, 21]: 100
- Plant response rating, Foxtail, Giant [5, 22]: 100
- Plant response rating, Lambsquarters [6, 21]: 100
- Plant response rating, Lambsquarters [6, 22]: 100
- Plant response rating, Morningglory [7, 21]: 0
- Plant response rating, Morningglory [7, 22]: 0
- Plant response rating, Pigweed [8, 21]: 100
- Plant response rating, Pigweed [8, 22]: 100
- Plant response rating, Rice (rice (Oryza saliva); [21]): 100
- Plant response rating, Rice (rice (Oryza saliva); [22]): 0
- Plant response rating, Velvetleaf [9, 21]: 0
- Plant response rating, Velvetleaf [9, 22]: 0
- Plant response rating, Sunflower (Sunflower [10]; [23]): 40
- Plant response rating, Surinam grass [11, 23]: 30
- Plant response rating, Surinam grass [11, 24]: 40
- Plant response rating (0 to 100), Surinam grass ([11]; preemergence, Rate 500 g/ha): 100
- Plant response rating, Surinam grass [11, 25]: 70
- Plant response rating, Bermudagrass [12, 23]: 100
- Plant response rating, Bermudagrass [12, 24]: 100
- Plant response rating (0 to 100 where 0 is no effect and 100 is complete control), Bermudagrass ([12]; preemergence, Rate 500 g/ha): 100
- Plant response rating, Bermudagrass [12, 25]: 100
- Plant response rating, Cocklebur [13, 23]: 0
- Plant response rating, Cocklebur [13, 24]: 0
- Plant response rating (0 to 100), Cocklebur ([13]; preemergence, Rate 500 g/ha): 20
- Plant response rating, Cocklebur [13, 25]: 20
- Plant response rating, Ragweed, Common [14, 23]: 0
- Plant response rating, Ragweed, Common [14, 24]: 0
- Plant response rating (0 to 100), Ragweed, Common ([14]; preemergence, Rate 500 g/ha): 20
- Plant response rating, Ragweed, Common [14, 25]: 0
- Plant response rating, Crabgrass [15, 23]: 100
- Plant response rating, Crabgrass [15, 24]: 100
- Plant response rating (0 to 100), Crabgrass ([15]; preemergence, Rate 500 g/ha): 100
- Plant response rating, Crabgrass [15, 25]: 100
- Plant response rating, Foxtail, Giant [16, 23]: 100
- Plant response rating, Foxtail, Giant [16, 24]: 0
- Plant response rating (0 to 100), Foxtail, Giant ([16]; preemergence, Rate 500 g/ha): 100
- Plant response rating, Foxtail, Giant [16, 25]: 100
- Plant response rating, Goosegrass [17, 23]: 100
- Plant response rating, Goosegrass [17, 24]: 100
- Plant response rating (0 to 100), Goosegrass ([17]; preemergence, Rate 500 g/ha): 100
- Plant response rating, Goosegrass [17, 25]: 100
- Plant response rating, Morningglory [18, 23]: 10
- Plant response rating, Morningglory [18, 24]: 10
- Plant response rating (0 to 100), Morningglory ([18]; preemergence, Rate 500 g/ha): 30
- Plant response rating, Morningglory [18, 25]: 30
- Plant response rating, Velvetleaf [19, 23]: 10
- Plant response rating, Velvetleaf [19, 24]: 0
- Plant response rating (0 to 100), Velvetleaf ([19]; preemergence, Rate 500 g/ha): 20
- Plant response rating, Velvetleaf [19, 25]: 10
- Plant response rating (0 to 100), Sunflower (Sunflower [20]; Rate 500 g/ha): 20

Compound: CC(C)c1ccn(C2SCN(c3cccc(OC(F)F)c3)C2=O)n1 (stereo not shown) [Compound 44]
- Plant response rating, Surinam grass [1, 21]: 100
- Plant response rating, Surinam grass [1, 26]: 0
- Plant response rating, Barnyardgrass [2, 21]: 100
- Plant response rating, Barnyardgrass [2, 26]: 80
- Plant response rating, Cocklebur [3, 26]: 0
- Plant response rating, Corn (corn (Zea mays); [21]): 20
- Plant response rating, Corn (corn (Zea mays); [26]): 0
- Plant response rating, Crabgrass [4, 21]: 100
- Plant response rating, Crabgrass [4, 26]: 0
- Plant response rating, Foxtail, Giant [5, 21]: 100
- Plant response rating, Foxtail, Giant [5, 26]: 10
- Plant response rating, Lambsquarters [6, 21]: 100
- Plant response rating, Lambsquarters [6, 26]: 100
- Plant response rating, Morningglory [7, 21]: 0
- Plant response rating, Pigweed [8, 21]: 100
- Plant response rating, Rice (rice (Oryza saliva); [21]): 100
- Plant response rating, Velvetleaf [9, 21]: 0
- Plant response rating, Sunflower (Sunflower [10]; [27]): 0
- Plant response rating, Sunflower (Sunflower [10]; Rate 500 g/ha, scale 0 to 100): 30
- Plant response rating, Surinam grass [11, 28]: 90
- Plant response rating, Surinam grass [11, 27]: 0
- Plant response rating (0 to 100), Surinam grass ([11]; preemergence, Rate 250 g/ha): 80
- Plant response rating, Surinam grass [11, 26]: 80
- Plant response rating, Bermudagrass [12, 28]: 100
- Plant response rating, Bermudagrass [12, 27]: 90
- Plant response rating (0 to 100 where 0 is no effect and 100 is complete control), Bermudagrass ([12]; preemergence, Rate 250 g/ha): 100
- Plant response rating, Bermudagrass [12, 26]: 100
- Plant response rating, Cocklebur [13, 28]: 100
- Plant response rating (0 to 100), Cocklebur ([13]; preemergence, Rate 250 g/ha): 30
- Plant response rating, Cocklebur [13, 26]: 0
- Plant response rating, Ragweed, Common [14, 28]: 50
- Plant response rating, Ragweed, Common [14, 27]: 0
- Plant response rating (0 to 100), Ragweed, Common ([14]; preemergence, Rate 250 g/ha): 50
- Plant response rating, Ragweed, Common [14, 26]: 0
- Plant response rating, Crabgrass [15, 28]: 100
- Plant response rating, Crabgrass [15, 27]: 100
- Plant response rating (0 to 100), Crabgrass ([15]; preemergence, Rate 250 g/ha): 100
- Plant response rating, Crabgrass [15, 26]: 100
- Plant response rating, Foxtail, Giant [16, 28]: 90
- Plant response rating, Foxtail, Giant [16, 27]: 0
- Plant response rating (0 to 100), Foxtail, Giant ([16]; preemergence, Rate 250 g/ha): 100
- Plant response rating, Foxtail, Giant [16, 26]: 100
- Plant response rating, Goosegrass [17, 28]: 100
- Plant response rating, Goosegrass [17, 27]: 90
- Plant response rating (0 to 100), Goosegrass ([17]; preemergence, Rate 250 g/ha): 100
- Plant response rating, Goosegrass [17, 26]: 100
- Plant response rating, Morningglory [18, 28]: 40
- Plant response rating, Morningglory [18, 27]: 0
- Plant response rating (0 to 100), Morningglory ([18]; preemergence, Rate 250 g/ha): 20
- Plant response rating, Morningglory [18, 26]: 0
- Plant response rating, Velvetleaf [19, 28]: 60
- Plant response rating, Velvetleaf [19, 27]: 0
- Plant response rating (0 to 100), Velvetleaf ([19]; preemergence, Rate 250 g/ha): 20
- Plant response rating, Velvetleaf [19, 26]: 0
- Plant response rating (0 to 100), Sunflower (Sunflower [20]; Rate 250 g/ha): 20
